Laboratory results: US20090054376A1, “BENZOFURAN DERIVATIVES WITH THERAPEUTIC ACTIVITIES” (Pharmos Corporation, priority 2005, published 2009)

Assays:
[1] = system: iNOS; test: Gene expression in LPS activated RAW 264.7 macrophages, iNOS; assay type: cell-based, mouse; conditions: RAW 264.7, 10 μM, LPS 1 μg/ml, RNA 3 hrs after activation, vs vehicle treated activated cells
Description: RAW 264.7 macrophages, a mouse cell line (ATCC # TIB 71), were grown in Dulbecco's modified Eagle's medium (DMEM) with 4 mM L-glutamine adjusted to contain 1.5 g/L sodium bicarbonate, 4.5 g/L glucose, and 10% heat inactivated fetal bovine serum. Cells were grown in tissue culture flasks and seeded at appropriate density into 6 wells tissue culture plates. Four million Raw cells in half a milliliter were stimulated with 1 μg/ml LPS E. coli 055:B5 (DIFCO Laboratories). The mouse macrophages were pre-treated for one hour with controls or 10 μM of test compounds, and later on activated with LPS. RNA samples were extracted from the cells 3 hrs after activation and gene expression levels were analyzed by real-time RT-PCR. In parallel, supernatants were collected and secretion of inflammatory mediators was analyzed using ELISA techniques according to the instructions of the kit manufacturer.
Total RNA is prepared using SV total RNA isolation system (Promega). The cells were homogenized in lysis buffer. The lysates were transferred to an RNA isolation column, treated with DNAse, washed and eluted according to kit instructions. RNA concentrations were determined using GeneQuant II (Pharmacia-Amersham). Complementary DNA (cDNA) was synthesized from total RNA using […] II reverse transcriptase (Life Technologies). 2 μg of total RNA were combined with an oligo (dT)15 primer, 0.5 mM dNTP mix, 8 units of reverse transcriptase and other reaction components up to a final volume of 20 μl, according to the kit instructions. The reaction mixture was incubated at 42° C. for 45 min and inactivated at 70° C. for 15 minutes. Quantitative real-time RT-PCR included 1 μl of the cDNA, 300 nM of the appropriate forward and reverse primers (according to the gene monitored) and 7.5 μl of the reaction mix containing buffer, nucleotides, Taq polymerase and SYBER green (SYBER Green master mix, Applied Biosystems), in a total reaction volume of 15 μl. Gene amplification was obtained using the GeneAmp 5700 sequence detection system (Applied Biosystems). Amplification included one stage of 10 minutes at 95° C. followed by 40 cycles of a 2-steps loop: 20 seconds at 95° C., and 1 minute at 60° C. During each annealing step, the amount of the amplified product was measured by the fluorescence of the double strand DNA binding dye, SYBER Green. The cycle of threshold (CT), representing the PCR cycle at which an increase in fluorescence above a baseline signal can be first detected, was determined for each product. A delay of one PCR cycle in the CT is translated into a two-fold decrease in starting template molecules and vice versa. The changes in the CT of the specific gene product were normalized to the changes in the CT of housekeeping cyclophilin or GAPDH as reference genes. Results were expressed as fold increase of gene expression in treated or untreated activated cells above the resting cells, after normalization to cyclophilin or GAPDH. Cells were also tested for viability to confirm that any effect on gene expression was indeed due to modulation of transcription of a specific target and not to cytoxicity.
Results were further expressed as percent inhibition of gene expression in compound treated activated cells over vehicle “treated” activated cells. Since the modulation of IL-10 and TNF-α gene expression by the compounds of the invention is relatively minor, it is not reported. […] Inhibition above 50% was considered significant.

[2] = system: CB1 related cannabimimetic activity; test: Safety: body temperature, catalepsy, spontaneous locomotor activity, elevated plus maze, sensitivity to touch; assay type: in vivo, ICR male mice; conditions: 2 mg/kg i.v.
Description: In the present study, impact of compounds of the invention on the central nervous system was measured by monitoring the body temperature, catalepsy and spontaneous locomotor activity of rodents. These activities are part of the Tetrad assays which are indicative, if all parameters are affected, of CB1 mediated activity. In addition, lack of CNS psychomimetic effect was assessed in the elevated plus maze model. Finally, sensitivity to touch was determined in order to evaluate peripheral CB1 related activity.
ICR male mice (average body weight 25 g, Harlan, Israel) were administered the compounds of the invention i.v. at a dose of 2 mg/kg and at a volume dose of 5 ml/kg. The psychoactive cannabinoid HU-210 was used as positive control at the 100-fold lower dose of 0.02 mg/kg i.v. The following measurements were made starting 15 minutes after compound administration. All tests were completed for each animal within approximately 10 minutes. Rectal temperature was monitored using a thermistor probe (YSI model 400, USA). Spontaneous locomotion was assessed using the open field methodology. The number of squares crossed by the animals were recorded and analyzed during a period of three minutes. At the end of the open field test, the animals were tested for catalepsy symptoms. This was carried out by gently forcing the animal to stand on its hind paws when its front paws are holding on an elevated beam. The time for the animal to step down of the beam was measured in seconds. A normal animal withdraws the beam immediately whereas cataleptic animal tend to stay on the beam. The longer the animal stays leaning on the beam, the more cataleptic the animal is. The behavior of the animals was then assessed in the elevated plus maze. The elevated plus maze consists of two open arms and two arms that are enclosed by high walls (arms 30×10 cm, wall height 20 cm). The elevated plus maze is usually elevated 80 cm above the floor. The mouse is placed on the maze head facing an open arm, and the time spent in the different compartments of the maze (open arms, closed arms and central area) are measured for the next 5 minutes. Results are expressed as percent of the time spent in the open arms, normal animals preferring to stay in the closed arms of the maze. Finally, animals were gently touched by an observer blinded for the treatment group and their sensitivity scored according to the following scale: 0 not sensitive, 1 sensitive and 2 highly sensitive. Results are expressed as average±SEM. At the end of the study, the animals were euthanized.

CCCCC(C)(C)c1cc(O)c2c(c1)OC1(C)CCCC21 (stereo not drawn) [Compound C5S-1, 6-(1,1-dimethylpentyl)-8a-methyl-2,3,3a,8a-tetrahydro-1H-8-oxa-cyclopenta[α]inden-4-ol]
Percent inhibition of gene expression, iNOS [1]: 37% | adverse cannabimimetic activities in any of the parameters monitored [2]: None

CCCCCCC(C)(C)c1cc(O)c2c3c(oc2c1)C(=O)CCC3(C)C [Compound C6M-9, 7-(1,1-Dimethylheptyl)-9-hydroxy-1,1-dimethyl-2,3-dihydro-1H-dibenzofuran-4-one]
Percent inhibition of gene expression, iNOS [1]: 32% | adverse cannabimimetic activities in any of the parameters monitored [2]: None

CCCCC(C)(C)c1cc(O)c2c(c1)OC1C2CCC(C)(C)C1O (centres unmarked) [Compound C6S-7, 3-(1,1-dimethylpentyl)-7,7-dimethyl-5a,6,7,8,9,9a-hexahydro-dibenzofuran-1,6-diol]
adverse cannabimimetic activities in any of the parameters monitored [2]: None

CCCCC(C)(C)c1cc(O)c2c(c1)OC1CCCCC21 (centres unmarked) [Compound C6S-3, 3-(1,1-dimethylpentyl)-5a,6,7,8,9,9a-hexahydro-dibenzofuran-1-ol]
Percent inhibition of gene expression, iNOS [1]: 68% | adverse cannabimimetic activities in any of the parameters monitored [2]: None | decrease of number of squares crossed ([2]; non-significant): 13% | number of squares crossed (spontaneous locomotor activity) ([2]; period of three minutes, vehicle 75.63±6.24): 65.80±7.04

CCCCCCC(C)(C)c1cc(O)c2c(c1)OC1C=CCCC21 (centres unmarked) [Compound C6S-2, 3-(1,1-Dimethylheptyl)-5a,8,9,9a-tetrahydro-dibenzofuran-1-ol]
Percent inhibition of gene expression, iNOS [1]: 23% | adverse cannabimimetic activities in any of the parameters monitored [2]: None

CCCCCCC(C)(C)c1cc(O)c2c(c1)OC1C(O)CCCCC21 (stereo not drawn) [Compound C7S-2, 2-(1,1-dimethylheptyl)-5,6,7,8,9,9a-hexahydro-4bH-10-oxa-benzo[α]azulen-4,9-diol]
Percent inhibition of gene expression, iNOS [1]: NO (NO indicates that the compound tested did not significantly affect the transcription of the gene assessed and that its activity is comparable to vehicle, within ±20% from this control)

CCCCCCC(C)(C)c1cc(O)c2c(c1)OC1(C)CCCC21 (stereo not drawn) [Compound C5S-2, 6-(1,1-dimethylheptyl)-8a-methyl-2,3,3a,8a-tetrahydro-1H-8-oxa-cyclo-penta[α]inden-4-ol]
Percent inhibition of gene expression, iNOS [1]: NO (NO indicates that the compound tested did not significantly affect the transcription of the gene assessed and that its activity is comparable to vehicle, within ±20% from this control) | adverse cannabimimetic activities in any of the parameters monitored [2]: None
